# Measurements taken from patent US9284283B2, “Macrocyclic compounds for modulating IL-17” (ENSEMBLE THERAPEUTICS CORPORATION, priority 2012, dated 2016).
# Target: T1, biotinylated human IL-17 (binding to IL17R/Fc) (Homo sapiens, UniProt Q16552)
# T1 construct: purchased R&D Systems 317-ILB (IL-17, biotinylated); 177-IR (IL17R/Fc)
# T1 sequence (Q16552 20-155 limits assumed): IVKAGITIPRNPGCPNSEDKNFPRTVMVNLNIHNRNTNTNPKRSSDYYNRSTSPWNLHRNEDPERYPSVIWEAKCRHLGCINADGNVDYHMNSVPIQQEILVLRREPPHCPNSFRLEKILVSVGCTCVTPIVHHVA
# Assay: IL-17 competition ELISA II (captured IL17R/Fc, biotinylated IL-17)
# How it was run: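 Competition read-out: absorbance at 450 nm after streptavidin-HRP/TMB detection, fitted to a 4-parameter logistic model bounded by no-competitor and blank wells to give IC50. Compound was serially diluted 5-fold from 1 μM alongside 20 nM (stock) biotinylated IL-17 on IL17R/Fc (10 nM) captured via goat anti-human IgG, 30 min at room temperature.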
row,Structure (SMILES),IC50
1,O=C1CC2(CCCC2)CC(=O)N[C@H](Cc2ccc(NC(=O)[C@@H](NC(=O)Cc3ccc(F)cc3)C3CCCCC3)cc2)C(=O)NCCCCN1 [Compound 410],100 to 1000 nM
2,C[C@H]1NC(=O)[C@@H](Cc2ccc(NC(=O)[C@H](Cc3ccccc3Cl)NC(=O)C(F)(F)c3ccccc3)cc2)NC(=O)CC2(CCCC2)CC(=O)N2CCN(CCNC1=O)CC2 [Compound 542],< 100 nM
3,O=C1CNC(=O)[C@@H](Cc2ccc(NC(=O)[C@@H](Cc3ccccc3Cl)NC(=O)Cc3ccccc3)cc2)NC(=O)CC2(CCCC2)CC(=O)NCCCCCN1 [Compound 526],100 to 1000 nM
4,CN1CCOCCOCCNC(=O)[C@@H](Cc2ccc(NC(=O)[C@H](CC3CCC3)NC(=O)Cc3ccc(N(C)C)cc3)cc2)NC(=O)CC2(CCCC2)CC1=O [Compound 616],< 100 nM
5,C[C@H]1NC(=O)[C@@H](Cc2ccc(NC(=O)[C@H](Cc3ccccc3Cl)NC(=O)Oc3ccccc3)cc2)NC(=O)CC2(CCCC2)CC(=O)N(C)CCN(C)CCN(C)C1=O [Compound 574],< 100 nM
6,CC(=O)N[C@@H](Cc1ccccc1Cl)C(=O)Nc1ccc(C[C@H]2NC(=O)CC3(CCCC3)CC(=O)OCCCCCNC(=O)CNC2=O)cc1 [Compound 676],< 100 nM
7,CN1CCOCCOCCNC(=O)[C@@H](Cc2ccc(NC(=O)[C@H](CC3CCCCC3)NC(=O)C(F)(F)c3ccccc3)cc2)NC(=O)CC2(CCCC2)CC1=O [Compound 613],< 100 nM
8,O=C1CC2(CCCC2)CC(=O)N[C@H](Cc2ccc(NC(=O)[C@H](Cc3ccccc3Cl)NC(=O)Cc3ccc(CO)cc3)cc2)C(=O)NCCCCN1 [Compound 393],< 100 nM
9,O=C1CC2(CCCC2)CC(=O)N[C@H](Cc2ccc(NC(=O)[C@@H](NC(=O)c3cccnc3)C3CCCCC3)cc2)C(=O)NCC#CCCCCCN1 [Compound 458],1000 to 10000 nM
10,O=C1CC2(CCCC2)CC(=O)N[C@H](Cc2ccc(NC(=O)[C@@H](NC(=O)c3cccnc3)C3CCCCC3)cc2)C(=O)NCCCCN1 [Compound 409],100 to 1000 nM
11,CN1CCCCCN(C)C(=O)[C@@H](CC(N)=O)NC(=O)[C@@H](Cc2ccc(NC(=O)[C@H](Cc3ccccc3Cl)NC(=O)C(F)(F)c3ccccc3)cc2)NC(=O)CC2(CCCC2)CC1=O [Compound 669],< 100 nM
12,CN(C)CCOc1ccc(CC(=O)N[C@@H](Cc2ccccc2Cl)C(=O)Nc2ccc(C[C@H]3NC(=O)CC4(CCCC4)CC(=O)NCCCCCNC(=O)[C@@H](Cc4ccccc4)NC3=O)cc2)cc1 [Compound 431],< 100 nM
13,O=C1CC2(CCCC2)CC(=O)N[C@H](Cc2ccc(NC(=O)[C@@H](NC(=O)Cc3cccc(O)c3)c3ccccc3)cc2)C(=O)NCCOCCOCCN1 [Compound 481],100 to 1000 nM
14,CN(C)c1ccc(CC(=O)N[C@H](C(=O)Nc2ccc(C[C@H]3NC(=O)CC4(CCCC4)CC(=O)NCCCCCCCCNC3=O)cc2)C2CCCCC2)cc1 [Compound 599],< 100 nM
15,C[C@H]1NC(=O)[C@@H](Cc2cccc(NC(=O)[C@H](Cc3ccccc3Cl)NC(=O)Cc3ccc(F)cc3)c2)NC(=O)CC2(CCCC2)CC(=O)NCCCCCNC1=O [Compound 492],100 to 1000 nM
16,O=C1CNC(=O)[C@@H](Cc2ccc(NC(=O)[C@H](Cc3ccccc3Cl)NCc3ccccc3)cc2)NC(=O)CC2(CCCC2)CC(=O)NCCCCCN1 [Compound 503],1000 to 10000 nM
17,CC(=O)N[C@@H](Cc1ccccc1Cl)C(=O)Nc1ccc(C[C@H]2NC(=O)CC3(CCCC3)CC(=O)NCCCCCNC(=O)[C@@H](C)NC2=O)cc1 [Compound 468],< 100 nM
18,C[C@H]1NC(=O)[C@@H](Cc2ccc(NC(=O)[C@H](Cc3ccccc3Cl)NC(=O)Oc3ccc(F)cc3)cc2)NC(=O)CC2(CCCC2)CC(=O)NCCCCCNC1=O [Compound 575],< 100 nM
19,CCOC(=O)N[C@@H](Cc1ccccc1Cl)C(=O)Nc1ccc(C[C@H]2NC(=O)CC3(CCCC3)CC(=O)NCCOCCOCCNC2=O)cc1 [Compound 579],< 100 nM
20,O=C1CC2(CCCC2)CC(=O)N[C@H](Cc2ccc(NC(=O)[C@H](Cc3ccccc3Cl)NC(=O)Cc3ccc(F)cc3)cc2)C(=O)NCCN2CCN(CCN1)CC2 [Compound 532],100 to 1000 nM
21,C[C@H]1NC(=O)[C@@H](Cc2ccc(NC(=O)[C@@H](NC(=O)Cc3ccc(F)cc3)C3CCCCC3)cc2)NC(=O)CC2(CCCC2)CC(=O)N(C)CCCCCN(C)C1=O [Compound 623],< 100 nM
22,CN1CCCCCNC(=O)[C@@H](C(C)(C)C)NC(=O)[C@@H](Cc2ccc(NC(=O)[C@H](Cc3ccccc3Cl)NC(=O)Cc3cccc(O)c3)cc2)NC(=O)CC2(CCCC2)CC1=O [Compound 462],< 100 nM
23,CN1CCCCCNC(=O)C(Cc2ccc(NC(=O)C(NC(=O)c3cccnc3)C3CCCCC3)cc2)NC(=O)CC2(CCCC2)CC1=O (stereo not drawn) [Compound 421],1000 to 10000 nM
24,C[C@H]1NC(=O)[C@@H](Cc2ccc(NC(=O)[C@H](Cc3ccccc3Cl)NC(=O)Cc3ccc(F)cc3)cc2)NC(=O)[C@H]2CC[C@H](CC2)C(=O)NCCCCCNC1=O [Compound 592],100 to 1000 nM

row,Structure (SMILES),IC50
1,COC(=O)N[C@H](C(=O)Nc1ccc(C[C@H]2NC(=O)CC3(CCCC3)CC(=O)N(C)CCOCCOCCNC2=O)cc1)C1CCCCC1 [Compound 624],> 10000 nM
2,O=C1CC2(CCCC2)CC(=O)N[C@H](Cc2ccc(NC(=O)[C@H](Cc3ccccc3Cl)NC(=O)C(=O)c3ccccc3)cc2)C(=O)NCCOCCOCCN1 [Compound 548],< 100 nM
3,O=C1CC2(CCCC2)CC(=O)N[C@H](Cc2ccc(NC(=O)[C@H](Cc3ccccc3Cl)NC(=O)c3ccc(F)cc3)cc2)C(=O)NCCOCCOCCN1 [Compound 521],< 100 nM
4,O=C1CNC(=O)[C@@H](Cc2ccc(NC(=O)[C@@H](NC(=O)CC3CCCCC3)C3CCCCC3)cc2)NC(=O)CC2(CCCC2)CC(=O)NCCCCCN1 [Compound 395],< 100 nM
5,C[C@H]1NC(=O)[C@@H](Cc2ccc(NC(=O)[C@H](Cc3ccccc3Cl)NC(=O)Cc3ccc(F)cc3)cc2)NC(=O)CC2(CCCC2)NC(=O)CCCCCNC1=O [Compound 617],< 100 nM
6,O=C1CC2(CCCC2)CC(=O)N[C@H](Cc2ccc(NC(=O)[C@H](Cc3ccccc3Cl)NC(=O)[C@@H](O)c3ccccc3)cc2)C(=O)NCCCCCN1 [Compound 546],100 to 1000 nM
7,O=C1CNC(=O)[C@@H](Cc2ccc(NC(=O)[C@@H](NC(=O)c3cnc4ccccc4c3)C3CCCCC3)cc2)NC(=O)CC2(CCCC2)CC(=O)NCCCCCN1 [Compound 449],100 to 1000 nM
8,CC(C)(C)[C@H]1NC(=O)[C@@H](Cc2ccc(NC(=O)[C@H](Cc3ccccc3Cl)NC(=O)C3(c4ccc(F)cc4)CC3)cc2)NC(=O)CC2(CCCC2)CC(=O)NCCCCCNC1=O [Compound 471],100 to 1000 nM
9,O=C1CC2(CCCC2)CC(=O)N[C@H](Cc2ccc(NC(=O)[C@H](Cc3ccccc3Cl)NC(=O)Cc3ccccc3)cc2)C(=O)NCCNCCN1 [Compound 411],< 100 nM
10,C[C@H]1NC(=O)[C@@H](Cc2ccc(NC(=O)[C@H](Cc3cccs3)NC(=O)C(F)(F)c3ccccc3)cc2)NC(=O)CC2(CCCC2)CC(=O)N(C)CCCCCN(C)C1=O [Compound 630],< 100 nM
11,O=C1CC2(CCCC2)CC(=O)N[C@H](Cc2ccc(NC(=O)[C@@H](NC(=O)c3cccnc3)C3CCCCC3)cc2)C(=O)NCCOCCOCCN1 [Compound 417],100 to 1000 nM
12,CN1CCNC(=O)CC2(CCCC2)CC(=O)N[C@H](Cc2ccc(NC(=O)[C@H](Cc3ccccc3Cl)NC(=O)Cc3ccccc3)cc2)C(=O)N[C@H](Cc2ccccc2)C(=O)N(C)CC1 [Compound 416],< 100 nM
13,CN1CCCCCNC(=O)CC2(CCCC2)CC(=O)N(C)[C@H](Cc2ccc(N(C)C(=O)[C@H](Cc3ccccc3Cl)N(C)C(=O)Cc3ccccc3)cc2)C(=O)N(C)CC1=O [Compound 363],100 to 1000 nM
14,C[C@H]1NC(=O)[C@@H](Cc2ccc(NC(=O)[C@@H](NC(=O)Cc3ccc(N(C)C)cc3)C3CCCCC3)cc2)NC(=O)CC2(CCCC2)CC(=O)N(C)CCN(C)CCN(C)C1=O [Compound 605],< 100 nM
15,C[C@H]1NC(=O)[C@@H](Cc2ccc(NC(=O)[C@H](Cc3ccccc3Cl)NC(=O)OCc3ccccc3)cc2)NC(=O)CC2(CCCC2)CC(=O)NCCCCCNC1=O [Compound 576],< 100 nM
16,O=C1CC2(CCCC2)CC(=O)N[C@H](Cc2ccc(NC(=O)[C@@H](NC(=O)C(F)(F)c3ccccc3)C3CCCCC3)cc2)C(=O)NCCOCCOCCN1 [Compound 595],< 100 nM
17,C[C@H]1NC(=O)[C@@H](Cc2ccc(NC(=O)[C@H](Cc3ccccc3Cl)NC(=O)Cc3ccc(F)cc3)cc2)NC(=O)CC2(CC2)CC(=O)NCCCCCNC1=O [Compound 554],< 100 nM
18,COC(=O)N[C@@H](Cc1ccccc1Cl)C(=O)Nc1ccc(C[C@H]2NC(=O)CC3(CCCC3)CC(=O)N(C)CCOCCN(C)C(=O)[C@@H](C)NC2=O)cc1 [Compound 569],< 100 nM
19,C[C@H]1NC(=O)[C@@H](Cc2ccc(NC(=O)[C@H](Cc3ccccc3Cl)NC(=O)C(F)(F)c3ccccc3)cc2)NC(=O)C[C@@H](Cc2ccccc2)NC(=O)CCNC(=O)CCNC1=O [Compound 634],< 100 nM
20,CN1C(=O)CC2(CCCC2)CC(=O)NCCCCCCCCNC(=O)[C@H]1Cc1ccc(NC(=O)[C@H](Cc2ccccc2Cl)NC(=O)C2(c3ccc(F)cc3)CC2)cc1 [Compound 505],1000 to 10000 nM
21,O=C1CC2(CCCC2)CC(=O)OCCCCCNC(=O)[C@@H](Cc2ccc(NC(=O)[C@@H](NC(=O)c3cccnc3)C3CCCCC3)cc2)N1 [Compound 423],1000 to 10000 nM
22,O=C1CC2(CCCC2)CC(=O)N[C@H](Cc2ccc(NC(=O)[C@H](Cc3ccccc3Cl)NC(=O)Cc3ccccc3)cc2)C(=O)NCCCN1 [Compound 398],< 100 nM
23,CN1CCNCCNC(=O)CC2(CCCC2)CC(=O)N[C@H](Cc2ccc(NC(=O)[C@H](Cc3ccccc3Cl)NC(=O)Cc3ccccc3)cc2)C(=O)N[C@H](Cc2ccccc2)C1=O [Compound 433],< 100 nM
24,C[C@H]1NC(=O)[C@@H](Cc2ccc(NC(=O)[C@H](Cc3ccccc3Cl)NC(=O)Cc3ccc(F)cc3)cc2)NC(=O)CC2(CCCC2)NC(=O)CCCCCCNC1=O [Compound 618],< 100 nM
